Measured values as given in PubChem BioAssay (NCI).
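How tested: cells in 96-well plates exposed to compound for 48 hours at five concentrations. GI50 marks 50% less growth. The concentration for full growth arrest is given as TGI.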

Legend:
Experiment in all cases: DTP human tumour cell line panel, 48 h
[1] = tested on: MALME-3M melanoma
[2] = tested on: OVCAR-4 ovarian
[3] = tested on: IGROV1 ovarian
[4] = tested on: SNB-75 CNS
[5] = tested on: A498 renal
[6] = tested on: MOLT-4 leukemia
[7] = tested on: LOX IMVI melanoma
[8] = tested on: RXF 393 renal
[9] = tested on: MDA-MB-435
[10] = tested on: MCF7 breast

SMILES | TGI [1] [µM] | TGI [2] [µM] | TGI [3] [µM] | TGI [4] [µM] | TGI [5] [µM] | TGI [6] [µM] | TGI [7] [µM] | TGI [8] [µM] | TGI [9] [µM] | TGI [10] [µM] | GI50 [1] [µM] | GI50 [7] [µM] | GI50 [2] [µM] | GI50 [8] [µM] | GI50 [3] [µM] | GI50 [4] [µM] | GI50 [5] [nM] | GI50 [10] [µM] | GI50 [6] [µM] | GI50 [9] [µM]
CCOC(=O)C1=C(Nc2cccc3ccccc23)OCC1=O | > 100 | > 100 | > 100 | > 100 | > 100 | > 100 |  |  |  |  |  |  |  |  |  |  |  |  |  | 
C#CCOCn1cnc2c(N)ncnc21 | > 100 | > 100 | > 100 | > 100 | > 100 | > 100 | > 100 |  |  |  |  |  |  |  |  |  |  |  |  | 
Cc1c(-c2cc(-c3ccccc3)n[nH]c2=O)c2ccccc2n1C | > 100 | > 100 | > 100 | > 100 | > 100 | > 100 |  | > 100 |  |  |  |  |  |  |  |  |  |  |  | 
CC(C)(C)c1cc(C#N)c2c(c1)C(=O)OC2(c1ccccc1)c1ccccc1C#N (stereo not drawn) | > 100 | > 100 | > 100 | > 100 | > 100 | > 100 | > 100 | > 100 |  |  |  |  |  |  |  |  |  |  |  | 
C=CCC(O)c1cc(OC)ccc1OC (stereo not drawn) | > 100 | > 100 | > 100 | > 100 |  |  | > 100 | > 100 |  |  |  |  |  |  |  |  |  |  |  | 
O=C(CC(=O)c1cccc2ccccc12)C(=O)Nc1nccs1 | > 100 | > 100 | > 100 | > 100 | > 100 | > 100 | > 100 | > 100 |  |  |  |  |  |  |  |  |  |  |  | 
COc1ccccc1NC(=O)C1=C(C)NC(C)=C(C(=O)Nc2ccccc2OC)C1c1ccc(C2C(C(=O)Nc3ccccc3OC)=C(C)NC(C)=C2C(=O)Nc2ccccc2OC)cc1 | 7.94 | 15.6 | 3.89 | 25 | 15.5 | 17.8 | 2.67 | 5.06 |  |  |  |  |  |  |  |  |  |  |  | 
CNC(=O)NCCCCC(NC(=O)OCc1ccccc1)C(=O)OCc1ccccc1 (stereo not drawn) | 47 | 46.5 | 76.4 | 41.6 | > 100 | 40.9 | 31.3 | 33.9 |  |  |  |  |  |  |  |  |  |  |  | 
Nc1ncnc2c1N=CN(Oc1ccccc1)N2 | 32.2 | > 100 | > 100 | > 100 |  | > 100 |  | > 100 |  |  |  |  |  |  |  |  |  |  |  | 
[N-]=[N+]=Nc1nnc(CCCCc2nnc(N=[N+]=[N-])o2)o1 | > 100 | > 100 |  | > 100 | > 100 | > 100 | > 100 | > 100 |  |  |  |  |  |  |  |  |  |  |  | 
OCC(O)C(OC1OC(CO)C(O)C(O)C1O)c1nn(-c2ccc(Cl)cc2)c2nc3cc(Cl)c(Cl)cc3nc12 (stereo not drawn) | > 100 | > 100 |  | > 100 | > 100 | > 100 | > 100 | > 100 |  |  |  |  |  |  |  |  |  |  |  | 
O=c1c2cc(Br)ccc2n(C2OC(CO)C(O)C(O)C2O)c(=S)n1-c1ccccc1 (stereo not drawn) | > 100 | > 100 | > 100 | > 100 | > 100 | > 100 | > 100 | > 100 |  |  |  |  |  |  |  |  |  |  |  | 
COc1ccc2c3c1OC1C4(CCC5C(C2)N(CC2CC2)CCC351)OCCO4 (stereo not drawn) | > 100 | > 100 | > 100 | > 100 |  | > 100 | > 100 | > 100 | > 100 | > 100 |  |  |  |  |  |  |  |  |  | 
COc1cc(NC(=O)c2cc3ccccc3cc2O)c(OC)cc1Cl | 2.87 | 8.21 | 15.4 | 5.04 | 5.04 |  | > 100 | 8.01 |  | 7.13 | 0.335 | 2.47 | 2.12 | 2.24 | 0.0776 | 1.44 | 1960 | 1.93 | 2.27 | 
COc1cc2ccnc(-c3n[nH]c4cc(OC)c(OC)cc34)c2cc1OC | > 100 | > 100 | > 100 | > 100 | > 100 | > 100 | > 100 |  |  |  |  |  |  |  |  |  |  |  |  | 
C=CC(=O)OCCCS(=O)(=O)[O-].C=CC(=O)OCCCS(=O)(=O)[O-].NC1CCCCC1N.[Pt+4] | > 25 | > 25 | > 25 | > 25 | > 25 | > 25 | > 25 | > 25 |  |  | > 25 | > 25 | > 25 | > 25 | > 25 | > 25 | > 25000 |  | > 25 | 
O=C1c2ccccc2-c2c1c1ccc([N+](=O)[O-])cc1c(=O)n2CCN1CCOCC1 | > 100 | > 100 | > 100 | > 100 |  | > 100 | > 100 |  | > 100 | > 100 | > 100 | 37.8 | > 100 |  | > 100 | 35.5 |  | 43 | 48.8 | > 100
CC/C(=N/O)C(C)C(=O)CCC(=O)Nc1ccc(Cl)cc1 (stereo not drawn) | > 100 | > 100 | > 100 | > 100 | > 100 | > 100 | > 100 | > 100 |  |  |  |  |  |  |  |  |  |  |  | 
CCSc1nnc(-c2ccc3ccccc3c2O)n1-c1ccccc1 | > 100 | > 100 | > 100 | > 100 |  | > 100 |  | > 100 |  |  | 69.7 |  | 7.22 | > 100 | 7.59 | 71 |  |  | > 100 | 
CC(C)(C)[Si](C)(C)O/N=C\c1cccc(O[Si](C)(C)C(C)(C)C)c1 | 62.1 | 34.2 | 34.9 | 31.8 |  | 36.8 | 35.5 | 37.4 |  |  |  |  |  |  |  |  |  |  |  | 
COC(=O)c1ccc(N/C=C(/C#N)c2ccsc2)cc1 | 36.2 |  | 65.2 | 18.9 | 15.7 | > 100 |  | 23.9 |  |  |  |  |  |  |  |  |  |  |  | 
COc1ccc(C2C(C(=O)O)=C(CO)Oc3cc4c(cc32)OCO4)c(OC)c1 (stereo not drawn) | > 100 | > 100 | > 100 | > 100 |  | > 100 | > 100 | > 100 |  |  |  |  |  |  |  |  |  |  |  | 
CC1=C(C(=O)NCc2ccccc2)C(c2ccc(N(C)C)cc2)C(C(=O)NCc2ccccc2)=C(C)N1 | > 100 | > 100 | > 100 | > 100 | > 100 | > 100 |  | 80.3 |  |  |  |  |  |  |  |  |  |  |  | 
